The first test in a line: Inhibitory concentration of compound against glyceraldehyde-3-phosphate dehydrogenase was determined.
In the case of `CCOC(=O)c1cn([C@@H]2O[C@H](COC(=O)c3ccccc3)[C@@H](OC(=O)c3ccccc3)[C@H]2OC(=O)c2ccccc2)c2ccc(Cl)cc2c1=O`, the IC50 (in general, the concentration needed to halve the response being measured) came to 29 µM.
The same measure, in the same setting: under `COc1ccc(-n2nc3c4ccccc4n([C@@H]4O[C@H](COC(=O)c5ccccc5)[C@@H](OC(=O)c5ccccc5)[C@H]4OC(=O)c4ccccc4)cc-3c2=O)cc1` [Adenosine analogue] stands 45 µM; under `COc1cccc(C(=O)NC2C(O)[C@@H](COP(=O)([O-])OP(=O)(O)OC[C@H]3O[C@@H]([n+]4ccc(C(N)=O)cc4)C(O)C3O)O[C@H]2n2cnc3c(NCc4cccc5ccccc45)ncnc32)c1` (some centres undefined) [Adenosine analogue], 0.1 µM.
The same measure, in the same setting: under `COc1cccc(C(=O)NC2C(O)[C@@H](CO)O[C@H]2n2cnc3c(NCc4cccc5ccccc45)ncnc32)c1` (stereo partly drawn) [N-((2R,5R)-4-Hydroxy-5-hydroxymethyl-2-{6-[(naphthalen-1-ylmethyl)-amino]-purin-9-yl}-tetrahydro-furan-3-yl)-3-methoxy-benzamide] stands 12 µM.
The same measure, in the same setting: the result for `COc1cccc(C(=O)NC2C(O)[C@@H](COP(=O)(O)O)O[C@H]2n2cnc3c(NCc4cccc5ccccc45)ncnc32)c1` (stereo partly drawn) [Phosphoric acid mono-((2R,5R)-3-hydroxy-4-(3-methoxy-benzoylamino)-5-{6-[(naphthalen-1-ylmethyl)-amino]-purin-9-yl}-tetrahydro-furan-2-ylmethyl) ester] reads 5 µM.

The next test in a line: Inhibitory concentration against glyceraldehyde-3-phosphate dehydrogenase was determined as log 1/IC50.
`C=CC(C)(C)c1cc2cc3c(cc2oc1=O)O[C@H](C(C)(C)O)C3` [Chalepin] registered an IC50 of 55 µM.

Experiment in a further test: as above
The source holds these as a separate data set.
As for `CC1(C)C=Cc2c(ccc3ccc(=O)oc23)O1`, the concentration for half-maximal inhibition (IC50) stood at 123 µM.
Still for that read-out and setting: the result for `O=c1oc2ccc(/N=C/c3ccco3)cc2cc1-c1ccc2c(c1)OCO2` reads 56.2 µM; that for `CC(=O)Oc1cccc(-c2cc3cc(OC(C)=O)ccc3oc2=O)c1`, 17 µM.
On the same count and under the same terms, under `O=c1oc2c(O)cccc2cc1-c1ccc2c(c1)OCO2` stands 30.9 µM; under `COc1c2c(cc3oc(=O)ccc13)OCC2`, 347 µM; under `O=c1oc2ccccc2cc1-c1cccc(O)c1`, 67.6 µM.
Same read-out and setting: the result for `C=C(C)[C@H]1Cc2cc3ccc(=O)oc3cc2O1` reads 145 µM.
Molecule `C=C(C)[C@@H]1Cc2c(cc(O)c3ccc(=O)oc23)O1` showed an IC50 of 191 µM.
Consider `CC(=O)Oc1ccc2oc(=O)c(-c3ccc4c(c3)OCO4)cc2c1`, for which the IC50 worked out at 64.6 µM.
On the same count and under the same terms, under `CC(=O)Oc1ccc2oc(=O)c(-c3ccccc3)cc2c1` stands 123 µM; under `C=C(C)[C@H]1O[C@@H]1c1c(O)ccc2ccc(=O)oc12`, 129 µM.
On the same count and under the same terms, the result for `CC1=C2c3c(ccc4ccc(=O)oc34)OCC2OC1=O` (centres undefined) reads 74.1 µM; that for `CC(=O)Oc1ccc(-c2cc3cc(OC(C)=O)ccc3oc2=O)cc1`, 52.5 µM.
Take `C=CC(C)(C)c1cc2ccc(O)cc2oc1=O`: the IC50 was found to be 162 µM.
`COc1cccc(-c2cc3cc(OC(C)=O)ccc3oc2=O)c1` gave an IC50 of 85.1 µM.
As for `O=c1oc2ccc(/N=C/c3ccc[nH]3)cc2cc1-c1ccc2c(c1)OCO2`, 56.2 µM corresponded to half-maximal inhibition (IC50).
As for `O=c1ccc2ccccc2o1` [2H-chromen-2-one], the IC50 came out at 692 µM.
On the same count and under the same terms, under `O=c1oc2ccccc2cc1-c1ccc(O)cc1` [3-(4-Hydroxy-phenyl)-chromen-2-one] stands 38.9 µM; under `CC(=O)Oc1ccc(-c2cc3cc(OC(C)=O)c(OC(C)=O)cc3oc2=O)cc1OC(C)=O` [6,7-diacetoxy-3-[30,40-diacetoxyphenyl]-coumarin], 17.8 µM.
The same measure, in the same setting: under `COc1cc2ccc(=O)oc2cc1O` [7-hydroxy-6-methoxy-2H-chromen-2-one] stands 257 µM.
The same measure, in the same setting: the result for `CC1(C)C=Cc2cc3ccc(=O)oc3cc2O1` [8,8-Dimethyl-8H-pyrano[3,2-g]chromen-2-one] reads 195 µM; that for `COc1ccc2ccc(=O)oc2c1CC=C(C)C` [osthole], 209 µM.
The molecule `O=c1ccc2ccc(O)cc2o1` [umbelliferone] displayed an IC50 of 617 µM.

For the origin of these results see BindingDB's records for doi:10.1016/j.bmcl.2004.02.025 (Universidade Federal De Minas Gerais, 2004).
